From PubChem BioAssay (NCI)
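Assay format: 96-well plates, 48-hour exposure. TGI is the concentration that stops growth completely.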

How the values were obtained:
Assay in all cases: growth of human tumour cells (NCI), 48 h
SW-620 colon = test system: SW-620 colon
CAKI-1 renal = test system: CAKI-1 renal
NCI-H460 lung = test system: NCI-H460 lung
UO-31 renal = test system: UO-31 renal
CCRF-CEM leukemia = test system: CCRF-CEM leukemia
NCI-H522 lung = test system: NCI-H522 lung
M14 melanoma = test system: M14 melanoma
SK-MEL-2 melanoma = test system: SK-MEL-2 melanoma
MDA-N = test system: MDA-N
786-0 renal = test system: 786-0 renal
HCC-2998 colon = test system: HCC-2998 colon
SR leukemia = test system: SR leukemia
SF-295 CNS = test system: SF-295 CNS
SK-MEL-5 melanoma = test system: SK-MEL-5 melanoma
OVCAR-8 ovarian = test system: OVCAR-8 ovarian
PC-3 prostate = test system: PC-3 prostate
U251 CNS = test system: U251 CNS
MALME-3M melanoma = test system: MALME-3M melanoma
SK-OV-3 ovarian = test system: SK-OV-3 ovarian
HL-60(TB) leukemia = test system: HL-60(TB) leukemia
NCI-H226 lung = test system: NCI-H226 lung
MDA-MB-231 breast = test system: MDA-MB-231 breast
NCI/ADR-RES ovarian = test system: NCI/ADR-RES ovarian
KM12 colon = test system: KM12 colon
RXF 393 renal = test system: RXF 393 renal
NCI-H23 lung = test system: NCI-H23 lung
BT-549 breast = test system: BT-549 breast
MOLT-4 leukemia = test system: MOLT-4 leukemia
HCT-116 colon = test system: HCT-116 colon
OVCAR-4 ovarian = test system: OVCAR-4 ovarian
IGROV1 ovarian = test system: IGROV1 ovarian
SF-268 CNS = test system: SF-268 CNS
COLO 205 colon = test system: COLO 205 colon
SK-MEL-28 melanoma = test system: SK-MEL-28 melanoma
HOP-92 NSCLC = test system: HOP-92 NSCLC
UACC-62 melanoma = test system: UACC-62 melanoma
SNB-75 CNS = test system: SNB-75 CNS
A498 renal = test system: A498 renal
A549 NSCLC = test system: A549 NSCLC
LOX IMVI melanoma = test system: LOX IMVI melanoma
RPMI-8226 leukemia = test system: RPMI-8226 leukemia
MCF7 breast = test system: MCF7 breast
OVCAR-3 ovarian = test system: OVCAR-3 ovarian
HT29 colon = test system: HT29 colon
SNB-19 CNS = test system: SNB-19 CNS
OVCAR-5 ovarian = test system: OVCAR-5 ovarian
HOP-62 NSCLC = test system: HOP-62 NSCLC
HS 578T breast = test system: HS 578T breast
K-562 leukemia = test system: K-562 leukemia
MDA-MB-435 = test system: MDA-MB-435
EKVX NSCLC = test system: EKVX NSCLC
UACC-257 melanoma = test system: UACC-257 melanoma
HCT-15 colon = test system: HCT-15 colon
TK-10 renal = test system: TK-10 renal
ACHN renal = test system: ACHN renal
SN12C renal = test system: SN12C renal

CSc1cc(Cl)c(C)cc1S(=O)(=O)NC(=O)Nc1ccc(Cl)cc1
TGI (SW-620 colon): 92.7 µM | TGI (CAKI-1 renal): > 100 µM | TGI (NCI-H460 lung): > 100 µM | TGI (UO-31 renal): 31.5 µM | TGI (CCRF-CEM leukemia): 39.2 µM | TGI (NCI-H522 lung): 41.4 µM | TGI (M14 melanoma): > 100 µM | TGI (SK-MEL-2 melanoma): 49 µM | TGI (MDA-N): > 100 µM | TGI (786-0 renal): > 100 µM | TGI (HCC-2998 colon): 38.4 µM | TGI (SR leukemia): > 100 µM | TGI (SF-295 CNS): > 100 µM | TGI (SK-MEL-5 melanoma): 64.9 µM | TGI (OVCAR-8 ovarian): > 100 µM | TGI (PC-3 prostate): > 100 µM | TGI (U251 CNS): > 100 µM | TGI (MALME-3M melanoma): 85.1 µM | TGI (SK-OV-3 ovarian): > 100 µM | TGI (HL-60(TB) leukemia): 28 µM | TGI (NCI-H226 lung): 45.1 µM | TGI (MDA-MB-231 breast): > 100 µM | TGI (NCI/ADR-RES ovarian): 97.1 µM | TGI (KM12 colon): 80.8 µM | TGI (RXF 393 renal): 51.7 µM | TGI (NCI-H23 lung): 40.4 µM | TGI (BT-549 breast): > 100 µM | TGI (MOLT-4 leukemia): 40.9 µM | TGI (HCT-116 colon): 35.7 µM | TGI (OVCAR-4 ovarian): > 100 µM | TGI (IGROV1 ovarian): > 100 µM | TGI (SF-268 CNS): > 100 µM | TGI (COLO 205 colon): 29.8 µM | TGI (SK-MEL-28 melanoma): > 100 µM | TGI (HOP-92 NSCLC): 45.5 µM | TGI (UACC-62 melanoma): 14.8 µM | TGI (SNB-75 CNS): 62.1 µM | TGI (A498 renal): > 100 µM | TGI (A549 NSCLC): > 100 µM | TGI (LOX IMVI melanoma): 52.5 µM | TGI (RPMI-8226 leukemia): > 100 µM | TGI (MCF7 breast): > 100 µM | TGI (OVCAR-3 ovarian): 74 µM | TGI (HT29 colon): > 100 µM | TGI (SNB-19 CNS): 92 µM | TGI (OVCAR-5 ovarian): > 100 µM | TGI (HOP-62 NSCLC): 63.2 µM | TGI (HS 578T breast): > 100 µM | TGI (K-562 leukemia): > 100 µM | TGI (MDA-MB-435): 88 µM | TGI (EKVX NSCLC): 87.8 µM | TGI (UACC-257 melanoma): 79.8 µM | TGI (HCT-15 colon): 84.1 µM | TGI (TK-10 renal): 81.5 µM | TGI (ACHN renal): > 100 µM | TGI (SN12C renal): > 100 µM
